Measured values from ChEMBL document CHEMBL1201862, “PubChem BioAssay data set” (2004).
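Cells were grown in 96-well plates and exposed to each compound for 48 hours at five concentrations; endpoints were interpolated linearly between bracketing concentrations, or set to the highest concentration if not reached. GI50 is the concentration that inhibits growth by half.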 Activity calls are given as the source filed them. Rule as the data show it: active = GI50 up to about 1.1 µM and inactive = higher.

Columns and labels:
Assay in all cases: DTP human tumour cell line panel, 48 h
ACHN = system: ACHN
EKVX = system: EKVX
SF-268 = system: SF-268
M14 = system: M14
SK-OV-3 = system: SK-OV-3
K562 = system: K562
HOP-92 = system: HOP-92
HT-29 = system: HT-29
786-0 = system: 786-0
NCI-H23 = system: NCI-H23
SNB-19 = system: SNB-19
NCI-H460 = system: NCI-H460
A549 = system: A549
UACC-257 = system: UACC-257
U-251 = system: U-251
SR = system: SR

Measured: GI50

COc1ccc(C2Oc3c(cc(O)c(OC)c3C)[C@@H]2C)cc1OC (some centres not stated)
inactive: ACHN > 100 µM | EKVX > 100 µM | SF-268 > 100 µM | M14 > 100 µM | SK-OV-3 > 100 µM | K562 47.9 µM | HOP-92 43 µM | HT-29 > 100 µM | 786-0 > 100 µM | NCI-H23 > 100 µM | SNB-19 > 100 µM | NCI-H460 > 100 µM | A549 > 100 µM | UACC-257 45 µM | U-251 > 100 µM

C=CCCCCCCCCC(=O)NS(=O)(=O)c1ccccc1
inactive: ACHN 71 µM | EKVX > 100 µM | SF-268 > 100 µM | M14 > 100 µM | SK-OV-3 > 100 µM | K562 54.5 µM | HOP-92 56.9 µM | HT-29 > 100 µM | 786-0 > 100 µM | NCI-H23 > 100 µM | SNB-19 > 100 µM | NCI-H460 > 100 µM | A549 57.7 µM | UACC-257 > 100 µM | U-251 77.4 µM

COc1cc(-c2cccs2)sc1-c1cccs1
inactive: ACHN 53.5 µM | EKVX 6.55 µM | SF-268 53.6 µM | M14 35.3 µM | SK-OV-3 31 µM | SR 17.7 µM | K562 13.6 µM | HOP-92 24.5 µM | HT-29 20.7 µM | 786-0 39.3 µM | NCI-H23 15.7 µM | SNB-19 > 100 µM | NCI-H460 26 µM | A549 33.3 µM | UACC-257 39.7 µM | U-251 43.6 µM

C=C1CC2CC(O)CC(C1)C2 (configuration not stated)
inactive: ACHN > 100 µM | EKVX > 100 µM | SF-268 > 100 µM | M14 > 100 µM | SK-OV-3 > 100 µM | SR 93.5 µM | HOP-92 > 100 µM | HT-29 > 100 µM | 786-0 > 100 µM | NCI-H23 > 100 µM | SNB-19 > 100 µM | NCI-H460 > 100 µM | A549 > 100 µM | UACC-257 > 100 µM | U-251 > 100 µM

S=c1sc2c(Cl)nc(Cl)nc2n1-c1ccccc1
inactive: ACHN > 100 µM | EKVX 61 µM | SF-268 11.1 µM | M14 21.1 µM | SK-OV-3 > 100 µM | SR 22.3 µM | K562 29 µM | HOP-92 > 100 µM | HT-29 33 µM | 786-0 > 100 µM | NCI-H23 15.7 µM | SNB-19 > 100 µM | NCI-H460 > 100 µM | A549 > 100 µM | UACC-257 53 µM | U-251 31 µM

CC1(CO)OC1COCc1ccccc1 (configuration not stated)
inactive: ACHN > 100 µM | EKVX > 100 µM | SF-268 > 100 µM | M14 > 100 µM | SK-OV-3 > 100 µM | SR > 100 µM | K562 > 100 µM | HOP-92 > 100 µM | HT-29 > 100 µM | 786-0 > 100 µM | NCI-H23 > 100 µM | SNB-19 > 100 µM | NCI-H460 > 100 µM | A549 > 100 µM | UACC-257 > 100 µM | U-251 > 100 µM

Cc1cccc2c1C(=O)OC2(C)c1cccc2ccccc12 (configuration not stated)
inactive: ACHN 30.6 µM | EKVX 35.7 µM | SF-268 28.4 µM | M14 13 µM | SR 23.2 µM | K562 16.4 µM | HOP-92 18.6 µM | HT-29 30.5 µM | 786-0 30.9 µM | NCI-H23 30.8 µM | SNB-19 78.5 µM | NCI-H460 29.7 µM | A549 35.2 µM | UACC-257 34.2 µM | U-251 26.2 µM

CC(=O)NNc1nc(C)c(C(=O)NNC(=O)C(=O)Nc2ccc(C)cc2[N+](=O)[O-])s1
inactive: ACHN > 100 µM | EKVX > 100 µM | SF-268 > 100 µM | M14 > 100 µM | SK-OV-3 > 100 µM | SR 65.2 µM | K562 > 100 µM | HOP-92 > 100 µM | HT-29 > 100 µM | 786-0 > 100 µM | NCI-H23 > 100 µM | SNB-19 > 100 µM | NCI-H460 > 100 µM | A549 > 100 µM | UACC-257 > 100 µM | U-251 > 100 µM

COc1ccc(/C=C2\C(=O)N(C(=O)c3ccc(NC(C)=O)cc3)N=C2C)cc1OC
inactive: ACHN > 100 µM | EKVX > 100 µM | SF-268 > 100 µM | M14 > 100 µM | SR > 100 µM | K562 > 100 µM | HT-29 > 100 µM | 786-0 > 100 µM | NCI-H23 > 100 µM | SNB-19 > 100 µM | NCI-H460 > 100 µM | A549 > 100 µM | UACC-257 > 100 µM
